We go through one substance from paper PMC7069976, “Improved secretion of glycoproteins using an N-glycan-restricted passport sequence tag recognized by cargo receptor” (Nature Communications, 2020).

Holding throughout (type): cell-based
One assay deals with ΔMCFD2 HCT116 cells. Put plainly: EPO secretion level (ELISA) from MCFD2 KO HCT116 cells. The source says:
(§1) The guide RNAs (gRNAs) flanking the target enhancer regions for ERGIC-53 and MCFD2 were designed using ToolGen’s dRGEN synthesis service (Seoul, South Korea). The target DNA sequences of the gRNAs used in the present study were as follows: for MCFD2 deletion, […], and for ERGIC-53 deletion, […]. The gRNA expression plasmids (pRGEN-U6-sgRNA) were purchased from ToolGen. To generate the KO cells of MCFD2 or ERGIC-53, individual gRNA plasmids and a plasmid-expressing Cas9-green fluorescent protein (GFP) (Addgene, catalog #44719) were transiently transfected into HCT116 cells, which are diploid cells suitable for genome editing using the CRISPR/Cas9 method, in a six-well plate using polyethylenimine “Max” (Polysciences Inc., Warrington, PA) and a Cas9:gRNA molar ratio of 1:5 as described previously. At 48 h post transfection, cells with high GFP expression were identified using fluorescence-activated cell sorting with the BD FACSAria II cell sorter (BD Biosciences, San Jose, CA). For knocking out ERGL in the wild-type and ERGIC-53-KO cells, the Guide-it CRISPR/Cas9 System (green/red) (Takara Bio Inc., Kusatsu, Japan) was used for the cloning and expression of target single gRNAs, whose target ERGL DNA sequences were […] and […]. The two constructed pGuide-it Vectors (green and red) were transiently transfected into HCT116 cells. At 48 h post transfection, cells with high ZsGreen1 and tdTomato expression were identified using fluorescence-activated cell sorting. Sorted cells were plated into individual wells of a 96-well plate and then re-plated as single cells in 6 cm dishes. The deletions in the clones were confirmed by polymerase chain reaction and sequencing analysis (Supplementary Figs. 8, 9, 10, and 11).
(§2) For expression of the FVIII and FV full-length and deletion mutant proteins in mammalian cells, the codon-optimized FVIII and FV genes were inserted into the p3XFLAG-CMV-14 Expression Vector and p3XFLAG-CMV-9 Expression Vector, respectively (Sigma-Aldrich, St. Louis, MO). For the expression of the wild-type and mutated AAT, EPO, and sFγRIIIa in mammalian cells, the corresponding genes (purchased from FASMAC Co., Ltd., Atsuki, Japan) were inserted into the p3XFLAG-CMV-9 Expression Vector (Sigma-Aldrich). […]
(§3) The secreted levels of FVIII and FV antigens in the culture medium were determined with an sandwich enzyme-linked immunosorbent assay (ELISA) method using the VisuLize FVIII Antigen Kit (Affinity Biologicals Inc., Ancaster, ON) and the Asssay Max™ Human Factor V ELISA Kit (ASSAYPRO, MO), respectively. The secreted levels of AAT and EPO antigens in the culture medium were determined with an ELASA method using the anti-AAT antibody (Agilent, Santa Clara, CA) and anti-Flag M2 antibody (Sigma-Aldrich), respectively.

The next assay relates to ERGL KO HCT116 cells. Kind of assay: EPO secretion level (ELISA) from ERGL KO HCT116 cells.
From the text: as §1, §2, §3

The next assay relates to ΔERGIC-53 HCT116 cells. Put plainly: EPO secretion level (ELISA) from ERGIC-53 KO HCT116 cells.
From the text: as §1, §2, §3

The next assay deals with HCT116 cells. Kind of assay: Intracellular accumulation, western blotting of cell lysates. The conditions noted are these: anti-flag western blot, vs EPO-motif. On the procedure:
Western blots were performed according to methods in previous studies[29],[30]. At 72 h post transfection, the EPO and sFγRIII recombinant proteins were purified with anti-Flag M2 Affinity Gel (Sigma-Aldrich). The gel was washed twice with phosphate-buffered saline, and proteins were eluted with the 3× FLAG tag peptide (Sigma-Aldrich). The purified proteins were subjected to 3–10% gradient sodium dodecyl sulfate-polyacrylamide gel electrophoresis and subsequently transferred to a polyvinylidene difluoride membrane (Millipore, Billerica, MA). After blocking with Blocking One solution (Nacalai Tesque, Kyoto, Japan), the membranes were incubated with monoclonal mouse anti-Flag M2 (Sigma-Aldrich, F1804), anti-human LMAN1 (ERGIC-53) (Proteintech, Tokyo, Japan, 13364), anti-human SDNSF/MCFD2 (R&D System, Minneapolis, MN, MAB2357), and anti-β-actin (Sigma-Aldrich, A2228) antibodies, and then with horseradish peroxidase (HRP)-conjugated secondary antibody [anti-mouse IgG antibody-HRP, GE Healthcare (Piscataway, NJ) and anti-rabbit Ig antibody-HRP, Cell Signaling Technology (Danvers, MA)] in 20 mM Tris-HCl (pH 7.6) containing 150 mM NaCl and 0.05% Tween-20. The protein bands were visualized with Immobilon Western Chemiluminescent HRP substrate solution (Millipore).
(In general: Immunoblotting shows a protein as a band on a membrane.)

Setting [1] is: average, n = 3, EPO in wild type = 1.

Consider “EPO: recombinant Flag-tagged erythropoietin without motif (Fig. 5 prints EPO for mScarlet-I-EPO)”, for which the “EPO secretion level (Figure 4D), average” value in the assay with ΔMCFD2 HCT116 cells (setting [1]) is 0.9208; with ERGL KO HCT116 cells (setting [1]) it was 0.7808; in the assay on ΔERGIC-53 HCT116 cells (setting [1]), 1.297. The “EPO secretion level (Figure 4D)” value in the assay on ΔMCFD2 HCT116 cells (replicate 1) is 0.5997; in the assay with ΔMCFD2 HCT116 cells (replicate 2), 1.0013; in the assay on ΔMCFD2 HCT116 cells (replicate 3), 1.162; in the assay with ERGL KO HCT116 cells (replicate 1), 0.6104; in the assay with ERGL KO HCT116 cells (replicate 2), 0.9026; in the assay on ERGL KO HCT116 cells (replicate 3), 0.8293. For the same substance, the entries for the “EPO secretion level (Figure 4D)” value with ΔERGIC-53 HCT116 cells (replicate 1), in the assay on ΔERGIC-53 HCT116 cells (replicate 2) and with ΔERGIC-53 HCT116 cells (replicate 3) were 1.122, 1.395 and 1.373, respectively. Further, the “intracellular accumulation” value in the assay with HCT116 cells is “a higher level of accumulation in the cells”.
